# Results reported in PubChem BioAssay (NCI).
#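 Values below derive from 48-hour exposures of cells grown in 96-well plates, with endpoints linearly interpolated between the two concentrations bracketing the appropriate inhibition level. TGI denotes the concentration required for complete inhibition of growth.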
# Key:
# Assay in all cases: NCI anticancer screen, dose series, 48 h
# [1] = tested on: UACC-257 melanoma
# [2] = tested on: IGROV1 ovarian
# [3] = tested on: NCI-H226 lung
# [4] = tested on: NCI/ADR-RES ovarian
# [5] = tested on: MDA-MB-231 breast
# [6] = tested on: SR leukemia
# [7] = tested on: EKVX NSCLC
# [8] = tested on: U251 CNS
# [9] = tested on: OVCAR-3 ovarian
# [10] = tested on: BT-549 breast
# [11] = tested on: OVCAR-5 ovarian
# [12] = tested on: HOP-92 NSCLC
# [13] = tested on: HCT-15 colon
# [14] = tested on: NCI-H460 lung
# [15] = tested on: HCC-2998 colon
# [16] = tested on: LOX IMVI melanoma
# [17] = tested on: COLO 205 colon
# [18] = tested on: KM12 colon
# [19] = tested on: RXF 393 renal
# [20] = tested on: HCT-116 colon
# [21] = tested on: M14 melanoma
# [22] = tested on: CAKI-1 renal
# [23] = tested on: 786-0 renal
# [24] = tested on: UO-31 renal
# [25] = tested on: NCI-H23 lung
# [26] = tested on: SF-295 CNS
# [27] = tested on: OVCAR-4 ovarian
# [28] = tested on: MCF7 breast
# [29] = tested on: HS 578T breast
# [30] = tested on: SK-MEL-2 melanoma
# [31] = tested on: RPMI-8226 leukemia
# [32] = tested on: SK-MEL-5 melanoma
# [33] = tested on: K-562 leukemia
# [34] = tested on: DU-145 prostate
# [35] = tested on: A549 NSCLC
# [36] = tested on: HOP-62 NSCLC
# [37] = tested on: CCRF-CEM leukemia
# [38] = tested on: MDA-MB-435
# [39] = tested on: NCI-H522 lung
# [40] = tested on: A498 renal
# [41] = tested on: SK-MEL-28 melanoma
# [42] = tested on: SF-268 CNS
# [43] = tested on: PC-3 prostate
# [44] = tested on: SN12C renal
# [45] = tested on: HL-60(TB) leukemia
# [46] = tested on: HT29 colon
# [47] = tested on: SF-539 CNS
# [48] = tested on: OVCAR-8 ovarian
# [49] = tested on: SK-OV-3 ovarian
# [50] = tested on: MOLT-4 leukemia
# [51] = tested on: T-47D breast
# [52] = tested on: MDA-N
# [53] = tested on: UACC-62 melanoma
# [54] = tested on: SNB-75 CNS
# [55] = tested on: SNB-19 CNS
# [56] = tested on: SW-620 colon
# [57] = tested on: MALME-3M melanoma
# [58] = tested on: TK-10 renal
# [59] = tested on: ACHN renal
structure (smiles),measurement,setting,value
COc1cc(/C=C2\CCC(C)C3=C(c4cc(OC)c(OC)c(OC)c4)C(C#N)=C(N)OC32)cc(OC)c1OC (configuration not stated),TGI,[1],> 65.4 µM
same,TGI,[2],> 52.3 µM
same,TGI,[3],6.96 µM
same,TGI,[4],99.2 µM
same,TGI,[5],10.9 µM
same,TGI,[6],> 37.8 µM
same,TGI,[7],47.6 µM
same,TGI,[8],25.7 µM
same,TGI,[9],> 60.1 µM
same,TGI,[10],> 100 µM
same,TGI,[11],> 64.6 µM
same,TGI,[12],> 31.3 µM
same,TGI,[13],> 68.2 µM
same,TGI,[14],> 100 µM
same,TGI,[15],32.5 µM
same,TGI,[16],8.99 µM
same,TGI,[17],5.48 µM
same,TGI,[18],36.8 µM
same,TGI,[19],4.36 µM
same,TGI,[20],11.3 µM
same,TGI,[21],6.92 µM
same,TGI,[22],> 65.2 µM
same,TGI,[23],8.83 µM
same,TGI,[24],> 100 µM
same,TGI,[25],> 100 µM
same,TGI,[26],> 40.6 µM
same,TGI,[27],> 59.6 µM
same,TGI,[28],7.4 µM
same,TGI,[29],14.6 µM
same,TGI,[30],4.46 µM
same,TGI,[31],6.08 µM
same,TGI,[32],7.24 µM
same,TGI,[33],> 100 µM
same,TGI,[34],> 100 µM
same,TGI,[35],> 100 µM
same,TGI,[36],> 100 µM
same,TGI,[37],26.2 µM
same,TGI,[38],21.6 µM
same,TGI,[39],7.75 µM
same,TGI,[40],> 53.4 µM
same,TGI,[41],13.9 µM
same,TGI,[42],> 100 µM
same,TGI,[43],24.8 µM
same,TGI,[44],> 60.6 µM
same,TGI,[45],> 25 µM
same,TGI,[46],5.02 µM
same,TGI,[47],4.98 µM
same,TGI,[48],> 73 µM
same,TGI,[49],> 57.2 µM
same,TGI,[50],> 49 µM
same,TGI,[51],12.9 µM
same,TGI,[52],21.9 µM
same,TGI,[53],23.2 µM
same,TGI,[54],9.24 µM
same,TGI,[55],> 100 µM
same,TGI,[56],> 100 µM
same,TGI,[57],9.03 µM
same,TGI,[58],> 100 µM
same,TGI,[59],> 65.6 µM
CC(C)(C)c1cc(C(C)(C)C)c2c(c1O)OC(=O)CS2,TGI,[1],> 66.7 µM
same,TGI,[2],> 60.2 µM
same,TGI,[3],26.3 µM
same,TGI,[4],20.6 µM
same,TGI,[5],52.4 µM
same,TGI,[6],> 48.7 µM
same,TGI,[7],25.6 µM
same,TGI,[8],17.9 µM
same,TGI,[9],18.1 µM
same,TGI,[10],23.9 µM
same,TGI,[11],41 µM
same,TGI,[12],> 47.7 µM
same,TGI,[13],14.9 µM
same,TGI,[14],9.13 µM
same,TGI,[15],14 µM
same,TGI,[16],24 µM
same,TGI,[17],9.89 µM
same,TGI,[18],17.8 µM
same,TGI,[19],13.7 µM
same,TGI,[20],13.4 µM
same,TGI,[21],41.2 µM
same,TGI,[22],> 62.7 µM
same,TGI,[23],28.5 µM
same,TGI,[24],20.5 µM
same,TGI,[25],18.1 µM
same,TGI,[26],18.8 µM
same,TGI,[27],> 74.6 µM
same,TGI,[28],> 31.2 µM
same,TGI,[29],20 µM
same,TGI,[30],28.1 µM
same,TGI,[31],> 100 µM
same,TGI,[32],9.77 µM
same,TGI,[33],40.6 µM
same,TGI,[34],51.6 µM
same,TGI,[35],> 68.2 µM
same,TGI,[36],32.6 µM
same,TGI,[37],> 25.3 µM
same,TGI,[38],20.1 µM
same,TGI,[39],14.3 µM
same,TGI,[40],66.9 µM
same,TGI,[41],> 54.5 µM
same,TGI,[42],23.2 µM
same,TGI,[43],> 64.7 µM
same,TGI,[44],21.8 µM
same,TGI,[45],10.7 µM
same,TGI,[46],21.5 µM
same,TGI,[47],12.5 µM
same,TGI,[48],> 78 µM
same,TGI,[49],> 95.1 µM
same,TGI,[50],> 45.8 µM
same,TGI,[51],22.9 µM
same,TGI,[52],14.8 µM
same,TGI,[53],5.11 µM
same,TGI,[54],6.84 µM
same,TGI,[55],21.5 µM
same,TGI,[56],37.7 µM
same,TGI,[57],> 93.7 µM
same,TGI,[58],21.7 µM
same,TGI,[59],> 41 µM
C=C(C)C(=O)OC1C[C@H](COC(C)=O)C2CC=C(C)C2C2OC(=O)C(=C)[C@H]12 (some centres not stated),TGI,[1],13.2 µM
same,TGI,[2],25.5 µM
same,TGI,[3],31.8 µM
same,TGI,[4],6.23 µM
same,TGI,[5],13.5 µM
same,TGI,[6],5.07 µM
same,TGI,[7],23.4 µM
same,TGI,[8],22.1 µM
same,TGI,[9],5.3 µM
same,TGI,[10],14.4 µM
same,TGI,[11],25.5 µM
same,TGI,[12],5.9 µM
same,TGI,[13],5.17 µM
same,TGI,[14],34.4 µM
same,TGI,[15],29.2 µM
same,TGI,[16],4.86 µM
same,TGI,[17],6.17 µM
same,TGI,[18],24.2 µM
same,TGI,[19],14.1 µM
same,TGI,[20],3.3 µM
same,TGI,[21],4.23 µM
same,TGI,[22],7 µM
same,TGI,[23],7.26 µM
same,TGI,[24],4.91 µM
same,TGI,[25],14.2 µM
same,TGI,[26],33.8 µM
same,TGI,[27],5.57 µM
same,TGI,[28],14.7 µM
same,TGI,[29],14 µM
same,TGI,[30],15.9 µM
same,TGI,[31],2.61 µM
same,TGI,[32],20.3 µM
same,TGI,[33],5.56 µM
same,TGI,[34],16.5 µM
same,TGI,[35],34.2 µM
same,TGI,[36],27.7 µM
same,TGI,[37],5.03 µM
same,TGI,[38],10.9 µM
same,TGI,[39],3.06 µM
same,TGI,[40],27.8 µM
same,TGI,[41],7.08 µM
same,TGI,[42],7.21 µM
same,TGI,[43],15.1 µM
same,TGI,[44],13.1 µM
same,TGI,[45],2.83 µM
same,TGI,[46],18 µM
same,TGI,[47],10.1 µM
same,TGI,[48],13.3 µM
same,TGI,[49],31 µM
same,TGI,[50],5.24 µM
same,TGI,[51],20.8 µM
same,TGI,[52],10.3 µM
same,TGI,[53],16.7 µM
same,TGI,[54],24.2 µM
same,TGI,[55],31.8 µM
same,TGI,[56],6.53 µM
same,TGI,[57],2.55 µM
same,TGI,[58],18.1 µM
same,TGI,[59],11.8 µM
